Experimental data: patent US6737383B1, “Herbicidal oxadiazolidines” (priority 1999, dated 2004)

Legend:
[1] = test system: pigweed; assay: Test B pre/postemergence pigweed; assay type: in vivo, Amaranthus retroflexus
Outline: (§1)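 Herbicidal effect was estimated by eye on a ten-point control scale after plants spent twelve to sixteen days in a greenhouse following soil or foliar treatment. Foliar sprays targeted plants at one to four leaves; all doses were formulated in a non-phytotoxic solvent with surfactant.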

[2] = test system: rape; assay: Test B pre/postemergence rape; assay type: in vivo, Brassica napus
Outline: as §1

[3] = test system: bamyardgrass; assay: Test B flood test barnyardgrass; assay type: in vivo, Echinochloa crus-galli
Outline: (§2)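 Flood test on plants grown to the 2-leaf stage; treated plants kept in greenhouse twelve to sixteen days, then visually rated against controls on a 0 (no effect) to 10 (complete control) scale.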

[4] = test system: giant foxtail; assay: Test B pre/postemergence giant foxtail; assay type: in vivo, Setaria faberii
Outline: as §1

[5] = test system: crabgrass; assay: Test B pre/postemergence crabgrass; assay type: in vivo, Digitaria sanguinalis
Outline: as §1

[6] = test system: duck salad; assay: Test B flood test duck salad; assay type: in vivo, Heteranthera limosa
Outline: as §2

[7] = test system: purple nutsedge; assay: Test B pre/postemergence purple nutsedge; assay type: in vivo, Cyperus rotundus
Outline: as §1

[8] = test system: corn; assay: Test B pre/postemergence corn; assay type: in vivo, Zea mays
Outline: as §1

[9] = test system: wild oat; assay: Test B pre/postemergence wild oat; assay type: in vivo, Avena fatua
Outline: as §1

[10] = test system: wheat; assay: Test B pre/postemergence wheat; assay type: in vivo, Triticum aestivum
Outline: as §1

[11] = test system: cocklebur; assay: Test B pre/postemergence cocklebur; assay type: in vivo, Xanthium strumarium
Outline: as §1

[12] = test system: surinam grass; assay: Test B pre/postemergence surinam grass; assay type: in vivo, Brachiaria decumbens
Outline: as §1

[13] = test system: morningglory; assay: Test B pre/postemergence morningglory; assay type: in vivo, Ipomoea hederacea
Outline: as §1

[14] = test system: smallflower flatsedge; assay: Test B flood test smallflower flatsedge; assay type: in vivo, Cyperus difformis
Outline: as §2

[15] = test system: rice; assay: Test B flood test rice; assay type: in vivo, Oryza sativa
Outline: as §2

[16] = test system: sugar beet; assay: Test B pre/postemergence sugar beet; assay type: in vivo, Beta vulgaris
Outline: as §1

[17] = Preemergence, Rate 31 g/ha, visual rating, scale 0 to 10 (0 no effect, 10 complete control)
[18] = Preemergence, Rate 62 g/ha, scale of 0 to 10 where 0 is no effect and 10 is complete control
[19] = Preemergence, Rate 125 g/ha, 0 is no effect, 10 is complete control
[20] = Preemergence, Rate 250 g/ha, scale 0 to 10, 0 is no effect, 10 is complete control
[21] = Rate 31 g/ha, Postemergence, scale 0 to 10
[22] = Rate 62 g/ha, Postemergence, scale of 0 to 10 where 0 is no effect and 10 is complete control
[23] = Rate 125 g/ha, Postemergence, scale 0 to 10
[24] = Rate 31 g/ha, Pre-emergence section (flood test species), scale 0 to 10
[25] = Rate 62 g/ha, headed Pre-emergence (flood test species), scale 0 to 10 (0 no effect, 10 complete control)
[26] = Rate 125 g/ha, Pre-emergence, flood test species, scale 0 to 10 where 0 is no effect and 10 is complete control
[27] = Rate 250 g/ha, Pre-emergence, flood-test species, scale 0 to 10, 0 is no effect, 10 is complete control

Cc1ccccc1-n1c(=O)on(C(=O)N(c2ccc(F)cc2)C2CCC2)c1=O [Compound 200]
4: Giant foxtail plant response rating (0 to 10 scale) [4, 19]
2: Crabgrass plant response rating (0 to 10 scale) [5, 19] | Plant response rating (0 to 10; 0 is no effect, 10 is complete control), Crabgrass ([5]; Rate 250 g/ha, Postemergence) | Plant response rating (0 to 10; 0 is no effect, 10 is complete control), Morningglory ([13]; Rate 250 g/ha, Postemergence)
1: Crabgrass plant response rating [5, 23]
0: Redroot pigweed plant response rating [1, 17] | Redroot pigweed plant response rating [1, 18] | Redroot pigweed plant response rating (0 to 10 scale) [1, 19] | Redroot pigweed plant response rating [1, 20] | Redroot pigweed plant response rating [1, 21] | Redroot pigweed plant response rating [1, 22] | Redroot pigweed plant response rating [1, 23] | Plant response rating (0 to 10; 0 is no effect, 10 is complete control), Redroot pigweed ([1]; Rate 250 g/ha, Postemergence) | Rape plant response rating [2, 17] | Rape plant response rating [2, 18] | Rape plant response rating (0 to 10 scale) [2, 19] | Rape plant response rating [2, 20] | Rape plant response rating [2, 21] | Rape plant response rating [2, 22] | Rape plant response rating [2, 23] | Plant response rating (0 to 10; 0 is no effect, 10 is complete control), Rape ([2]; Rate 250 g/ha, Postemergence) | Barnyardgrass plant response rating [3, 24] | Barnyardgrass plant response rating [3, 25] | Barnyardgrass plant response rating [3, 26] | Barnyardgrass plant response rating [3, 27] | Giant foxtail plant response rating [4, 17] | Giant foxtail plant response rating [4, 18] | Giant foxtail plant response rating [4, 21] | Giant foxtail plant response rating [4, 22] | Giant foxtail plant response rating [4, 23] | Plant response rating (0 to 10; 0 is no effect, 10 is complete control), Giant foxtail ([4]; Rate 250 g/ha, Postemergence) | Crabgrass plant response rating [5, 17] | Crabgrass plant response rating [5, 18] | Crabgrass plant response rating [5, 21] | Crabgrass plant response rating [5, 22] | Ducksalad plant response rating [6, 24] | Ducksalad plant response rating [6, 25] | Ducksalad plant response rating [6, 26] | Ducksalad plant response rating [6, 27] | Nutsedge plant response rating [7, 17] | Nutsedge plant response rating [7, 18] | Nutsedge plant response rating (0 to 10 scale) [7, 19] | Nutsedge plant response rating [7, 21] | Nutsedge plant response rating [7, 22] | Nutsedge plant response rating [7, 23] | Plant response rating (0 to 10; 0 is no effect, 10 is complete control), Nutsedge ([7]; Rate 250 g/ha, Postemergence) | Corn plant response rating [8, 17] | Corn plant response rating [8, 18] | Corn plant response rating (0 to 10 scale) [8, 19] | Corn plant response rating [8, 20] | Corn plant response rating [8, 21] | Corn plant response rating [8, 22] | Corn plant response rating [8, 23] | Plant response rating (0 to 10; 0 is no effect, 10 is complete control), Corn ([8]; Rate 250 g/ha, Postemergence) | Wild oats plant response rating [9, 17] | Wild oats plant response rating [9, 18] | Wild oats plant response rating [9, 20] | Wild oats plant response rating [9, 22] | Wild oats plant response rating [9, 23] | Plant response rating (0 to 10; 0 is no effect, 10 is complete control), Wild oats ([9]; Rate 250 g/ha, Postemergence) | Wheat plant response rating [10, 17] | Wheat plant response rating [10, 18] | Wheat plant response rating [10, 20] | Wheat plant response rating [10, 22] | Wheat plant response rating [10, 23] | Plant response rating (0 to 10; 0 is no effect, 10 is complete control), Wheat ([10]; Rate 250 g/ha, Postemergence) | Cocklebur plant response rating [11, 17] | Cocklebur plant response rating [11, 18] | Cocklebur plant response rating (0 to 10 scale) [11, 19] | Cocklebur plant response rating [11, 20] | Cocklebur plant response rating [11, 21] | Cocklebur plant response rating [11, 22] | Cocklebur plant response rating [11, 23] | Plant response rating (0 to 10; 0 is no effect, 10 is complete control), Cocklebur ([11]; Rate 250 g/ha, Postemergence) | B. signalgrass plant response rating [12, 17] | B. signalgrass plant response rating [12, 18] | B. signalgrass plant response rating (0 to 10 scale) [12, 19] | B. signalgrass plant response rating [12, 20] | B. signalgrass plant response rating [12, 21] | B. signalgrass plant response rating [12, 22] | B. signalgrass plant response rating ([12]; Rate 125 g/ha, Postemergence, scale 0 (no effect) to 10 (complete control)) | Plant response rating, B. signalgrass ([12]; Rate 250 g/ha, Postemergence, scale 0 to 10, 0 is no effect, 10 is complete control) | Morningglory plant response rating [13, 17] | Morningglory plant response rating [13, 18] | Morningglory plant response rating (0 to 10 scale) [13, 19] | Morningglory plant response rating [13, 20] | Morningglory plant response rating [13, 21] | Morningglory plant response rating [13, 22] | Morningglory plant response rating [13, 23] | S. Flatsedge plant response rating [14, 24] | S. Flatsedge plant response rating [14, 25] | S. Flatsedge plant response rating [14, 26] | S. Flatsedge plant response rating [14, 27] | Rice plant response rating [15, 24] | Rice plant response rating [15, 25] | Rice plant response rating [15, 26] | Rice plant response rating [15, 27] | Sugarbeets plant response rating [16, 17] | Sugarbeets plant response rating [16, 18] | Sugarbeets plant response rating (0 to 10 scale) [16, 19] | Sugarbeets plant response rating [16, 20] | Sugarbeets plant response rating [16, 22] | Sugarbeets plant response rating [16, 23] | Plant response rating (0 to 10; 0 is no effect, 10 is complete control), Sugarbeets ([16]; Rate 250 g/ha, Postemergence)
6: Giant foxtail plant response rating [4, 20] | Crabgrass plant response rating [5, 20]
